# Literature values, collected in patent US8067401B2, “Compounds and compositions for treating infection” (priority 2007, dated 2011).
# System: HIV-1
substance,measurement,value
Prunellin,minimum inhibition concentration against HIV-1 in vitro,2.2 µg/mL
